Data reported in the supplement of paper PMC11061612.

Key:
[1] = test system: BxPC-3 (Pancreatic Carcinoma); test: Bliss excess, mean over the matrix (fraction); higher = more synergy
In short: (§1)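 Bliss excess equals the observed combination effect minus the expected value EA + EB − EA·EB, where EA and EB are the effects of each agent alone. Combination Emax is the second-highest inhibition within the matrix. Inhibition was scaled from CellTiter-Glo 2.0 luminescence, with 0 set by vehicle wells and 1 by blank wells, after 72 hours of two-drug dosing of cells plated in 1536-well plates.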

[2] = test system: HPAF-II (Pancreatic Carcinoma); test: as above
In short: as §1

[3] = test system: COR-L88 (Small Cell Lung Carcinoma); test: as above
In short: as §1

[4] = test system: ZR-75-30 (Breast Carcinoma); test: as above
In short: as §1

[5] = test system: SNU-423 (Hepatocellular Carcinoma); test: as above
In short: as §1

[6] = test system: KP-4 (Pancreatic Carcinoma); test: as above
In short: as §1

[7] = test system: RCC-JW (Kidney Carcinoma); test: as above
In short: as §1

[8] = test system: NCI-H3118 (Head and Neck Carcinoma); test: as above
In short: as §1

[9] = test system: LCLC-103H (Non-Small Cell Lung Carcinoma); test: as above
In short: as §1

[10] = test system: SK-CO-1 (Colorectal Carcinoma); test: as above
In short: as §1

KALS-1 (Glioblastoma) = test: as above
In short: as §1

GAK (Melanoma) = test: as above
In short: as §1

[11] = test system: MONO-MAC-6 (Acute Myeloid Leukemia); test: as above
In short: as §1

[12] = test system: KP-4 (Pancreatic Carcinoma); test: combination Emax (second highest fraction inhibited in the dose matrix, 72 h); higher = more inhibition; extreme values may be limits of the assay
In short: as §1

SMILES	Bliss excess [1]	Bliss excess [2]	Bliss excess [3]	Bliss excess [4]	Bliss excess [5]	Bliss excess [6]	Bliss excess [7]	Bliss excess [8]	Bliss excess [9]	Bliss excess [10]	Bliss excess (KALS-1 (Glioblastoma))	Bliss excess (GAK (Melanoma))	Bliss excess [11]	combination Emax [12]
C=CCn1c(=O)c2cnc(Nc3ccc(N4CCN(C)CC4)cc3)nc2n1-c1cccc(C(C)(C)O)n1 [AZD1775] + CCc1c2c(nc3ccc(O)cc13)-c1cc3c(c(=O)n1C2)COC(=O)[C@]3(O)CC [SN-38] (first compound max 1 µM, partner max 0.3 µM)	-0.101	-0.0218	-0.0248	-0.0938	-0.0644	0.0054	-0.0187	-0.0284	0.0015	-0.0355	0.0642	-0.0432	-0.0158	
C=CCn1c(=O)c2cnc(Nc3ccc(N4CCN(C)CC4)cc3)nc2n1-c1cccc(C(C)(C)O)n1 [AZD1775] + Nc1ccn([C@@H]2O[C@H](CO)[C@@H](O)C2(F)F)c(=O)n1 [Gemcitabine] (first compound max 1 µM, partner max 0.3 µM)	-0.029	0.0046	0.0144	-0.0561	-0.0538		-0.0163	-0.0638	0.0858	-0.0262	0.0299	-0.0443	0.0322	
CN(CCO)CC[C@H](CSc1ccccc1)Nc1ccc(S(=O)(=O)NC(=O)c2ccc(N3CCC([C@@H](O)c4ccccc4-c4ccc(Cl)cc4)CC3)cc2)cc1S(=O)(=O)C(F)(F)F [AZD4320] + CC(=O)O[C@H]1C(=O)[C@@]2(C)[C@H]([C@H](OC(=O)c3ccccc3)[C@]3(O)C[C@H](OC(=O)[C@H](O)[C@@H](NC(=O)c4ccccc4)c4ccccc4)C(C)=C1C3(C)C)[C@]1(OC(C)=O)CO[C@@H]1C[C@@H]2O [Paclitaxel] (first compound max 1 µM, 7x7, partner max 3 µM)	0.157	0.0952	0.25	0.0901	0.0819	-0.0097	0.0707	0.019	0.0719	-0.0002	0.0468	0.0815	0.0285	
CN(CCO)CC[C@H](CSc1ccccc1)Nc1ccc(S(=O)(=O)NC(=O)c2ccc(N3CCC([C@@H](O)c4ccccc4-c4ccc(Cl)cc4)CC3)cc2)cc1S(=O)(=O)C(F)(F)F [AZD4320] + CS(=O)(=O)CCNCc1ccc(-c2ccc3ncnc(Nc4ccc(OCc5cccc(F)c5)c(Cl)c4)c3c2)o1 [Lapatinib] (first compound max 1 µM, 7x7, partner max 10 µM)	-0.025	0.031	0.0911	0.0458	0.017	-0.0251	-0.0443	0.0041	-0.0224	0.0785	0.0176	0.0059	0.103	0.186
CN(CCO)CC[C@H](CSc1ccccc1)Nc1ccc(S(=O)(=O)NC(=O)c2ccc(N3CCC([C@@H](O)c4ccccc4-c4ccc(Cl)cc4)CC3)cc2)cc1S(=O)(=O)C(F)(F)F [AZD4320] + Nc1ccn([C@@H]2O[C@H](CO)[C@@H](O)C2(F)F)c(=O)n1 [Gemcitabine] (first compound max 1 µM, 7x7, partner max 0.3 µM)	-0.0248	-0.0087	0.0283	-0.0052	0.0088		-0.0025	-0.0638	-0.0122	-0.0065	0.0063	0.0955	-0.0237	
Cc1c2c(nn1C)CSCc1cc(n(C)n1)CSc1cc(c3ccccc3c1)OCCCc1c(C(=O)O)n(C)c3c-2c(Cl)ccc13 [AZD5991] + CC(=O)O[C@H]1C(=O)[C@@]2(C)[C@H]([C@H](OC(=O)c3ccccc3)[C@]3(O)C[C@H](OC(=O)[C@H](O)[C@@H](NC(=O)c4ccccc4)c4ccccc4)C(C)=C1C3(C)C)[C@]1(OC(C)=O)CO[C@@H]1C[C@@H]2O [Paclitaxel] (first compound max 1 µM, 7x7, partner max 3 µM)	0.0075	0.0356	0.0486	0.0617	-0.0344	-0.0288	-0.0029	0.0079	-0.0118	-0.052	0.0314	0.0893	0.0152	0.965
Cc1c2c(nn1C)CSCc1cc(n(C)n1)CSc1cc(c3ccccc3c1)OCCCc1c(C(=O)O)n(C)c3c-2c(Cl)ccc13 [AZD5991] + CS(=O)(=O)CCNCc1ccc(-c2ccc3ncnc(Nc4ccc(OCc5cccc(F)c5)c(Cl)c4)c3c2)o1 [Lapatinib] (first compound max 1 µM, 7x7, partner max 10 µM)	-0.005	-0.0209	-0.0283	0.063	-0.0272	-0.0211	-0.0401	0.0426	-0.025	0.0034	0.0053	0.015	0.0012	0.15
Cc1c2c(nn1C)CSCc1cc(n(C)n1)CSc1cc(c3ccccc3c1)OCCCc1c(C(=O)O)n(C)c3c-2c(Cl)ccc13 [AZD5991] + Nc1ccn([C@@H]2O[C@H](CO)[C@@H](O)C2(F)F)c(=O)n1 [Gemcitabine] (first compound max 1 µM, 7x7, partner max 0.3 µM)	0.0052	-0.0059	0.0854	0.0283	-0.0672		0.0274	-0.0107	-0.0722	-0.0284	-0.0036	0.01	-0.0133	
C[C@@H]1COCCN1c1cc(C2([S@](C)(=N)=O)CC2)nc(-c2ccnc3[nH]ccc23)n1 [AZD6738] + C1CC(C1)(C(=O)[O-])C(=O)[O-].N.N.[Pt+2] [Carboplatin] (first compound max 10 µM, 7x7, partner max 10 µM)	-0.0539	-0.0585	-0.0207	-0.0119	-0.0425	-0.0351	0.0051	-0.0423	-0.0447	0.0009	-0.0426	-0.0442	-0.0075	0.471
C[C@@H]1COCCN1c1cc(C2([S@](C)(=N)=O)CC2)nc(-c2ccnc3[nH]ccc23)n1 [AZD6738] + Nc1ccn([C@@H]2O[C@H](CO)[C@@H](O)C2(F)F)c(=O)n1 [Gemcitabine] (first compound max 10 µM, 7x7, partner max 0.3 µM)	0.008		0.105	0.0117	0.0969		0.0928	0.0134	0.0863	0.0365	0.0483	-0.0055	0.0427	
Cc1cc2ncnn2cc1Nc1ncc2c(n1)n(C1CCOCC1)c(=O)n2C [AZD7648] + COc1cc([C@@H]2c3cc4c(cc3[C@@H](O[C@@H]3O[C@@H]5CO[C@@H](C)O[C@H]5[C@H](O)[C@H]3O)[C@H]3COC(=O)[C@H]23)OCO4)cc(OC)c1O [Etoposide] (first compound max 10 µM, 7x7, partner max 10 µM)	-0.0254	0.0098	-0.0241	-0.0044	0.0551	0.122	0.132	0.0669	0.0526	0.0429	0.101	0.0732	0.159	0.878
C[C@@H](Nc1cc(F)cc(F)c1)c1cc(C(=O)N(C)C)cc2c(=O)cc(N3CCOCC3)oc12 [AZD8186] + C1CN(CCC1(C(=O)N[C@@H](CCO)C2=CC=C(C=C2)Cl)N)C3=NC=NC4=C3C=CN4 [AZD5363] (first compound max 10 µM, 7x7, partner max 10 µM)	-0.0731	0.0403	-0.0269	-0.0104	-0.0692	-0.0583	0.0563	-0.022	-0.0345	0.0309	-0.0397	-0.0303	0.0692	0.249
C[C@@H](Nc1cc(F)cc(F)c1)c1cc(C(=O)N(C)C)cc2c(=O)cc(N3CCOCC3)oc12 [AZD8186] + CC(=O)c1c(C)c2cnc(Nc3ccc(N4CCNCC4)cn3)nc2n(C2CCCC2)c1=O [Palbociclib] (first compound max 10 µM, 7x7, partner max 10 µM)	-0.0127	0.0384	0.0025	-0.0465	0.0188	0.0976	0.0622	0.0284	-0.0038	0.0163	0.0114	0.0192	0.0726	0.601
C[C@@H](Oc1cc(-c2cnn(C3CCNCC3)c2)cnc1N)c1c(Cl)ccc(F)c1Cl [Crizotinib] + CC1=C(C(=CC=C1)Cl)NC(=O)C2=CN=C(S2)NC3=CC(=NC(=N3)C)N4CCN(CC4)CCO [Dasatinib] (first compound max 10 µM, 7x7, partner max 2 µM)	0.035	0.0578	-0.0039	-0.0431	-0.0038	0.0493	-0.065	0.0187	0.01	0.0048	0.0652	-0.0786	0.014	0.848
C[C@@H](Oc1cc(-c2cnn(C3CCNCC3)c2)cnc1N)c1c(Cl)ccc(F)c1Cl [Crizotinib] + Cn1cnc2c(F)c(Nc3ccc(Br)cc3Cl)c(C(=O)NOCCO)cc21 [Selumetinib] (first compound max 10 µM, 7x7, partner max 10 µM)	-0.0323	0.0008	-0.0464	-0.0416	-0.0459	0.0259	-0.0432	-0.0222	-0.0221	-0.043	-0.005	-0.0473	0.023	0.838
N#Cc1cnc(Nc2cc(NC[C@H]3CNCCO3)c(C(F)(F)F)cn2)cn1 [SRA737] + CCc1c2c(nc3ccc(O)cc13)-c1cc3c(c(=O)n1C2)COC(=O)[C@]3(O)CC [SN-38] (first compound max 10 µM, 7x7, partner max 0.3 µM)	-0.0428	-0.0004	-0.0179	-0.0375	0.0367	-0.031	-0.0857	-0.0085	0.0442	-0.0667	0.0836		-0.0374	
N#Cc1cnc(Nc2cc(NC[C@H]3CNCCO3)c(C(F)(F)F)cn2)cn1 [SRA737] + Nc1ccn([C@@H]2O[C@H](CO)[C@@H](O)C2(F)F)c(=O)n1 [Gemcitabine] (first compound max 10 µM, 7x7, partner max 0.3 µM)	-0.0421	0.0843	-0.0293	-0.0408	0.0518		0.0179	0.0007	0.117	0.0698	0.0597	-0.011	0.0489	
